Assay [1] deals with Cyclin-dependent kinase 2/cyclin E (Homo sapiens) (UniProt P24864+P24941+O96020). Put plainly: Inhibition of CDK2/Cyclin E (unknown origin) at 500 nM. Format: protein-complex assay.
Assay [2] has as its target Cyclin-dependent kinase 2/cyclin E (Homo sapiens, UniProt P24941). Put plainly: Inhibition of CDK2/Cyclin E (unknown origin). Format: protein-complex assay.
A further assay deals with HCT-116. Put plainly: Antiproliferative activity against human HCT-116 cells assessed as inhibition of cell proliferation. Format: functional, cell-based.
For a further assay, the system named is MV4-11. The experiment in a line: Antiproliferative activity against human MV4-11 cells assessed as inhibition of cell proliferation. Format: functional, cell-based.
In assay [3] the target is Cyclin-dependent kinase 4/cyclin D1 (Homo sapiens, UniProt P11802). Put plainly: Inhibition of CDK4/Cyclin D1 (unknown origin). Format: protein-complex assay.
A further assay concerns the target CDK6/cyclin D3 (Homo sapiens, UniProt Q00534). The experiment in a line: Inhibition of CDK6/Cyclin D3 (unknown origin). Format: protein-complex assay.
Assay [4] is filed under the species Homo sapiens. Put plainly: Selectivity ratio of IC50 for inhibition of CDK4/Cyclin D1 (unknown origin) to IC50 for inhibition of CDK2/Cyclin E (unknown origin).
For assay [5], the species on record is Homo sapiens. Put plainly: Selectivity ratio of IC50 for inhibition of CDK6/Cyclin D3 (unknown origin) to IC50 for inhibition of CDK2/Cyclin E (unknown origin).

Data on 32 molecules can be found in ChEMBL document CHEMBL5257095, “Synthesis and biological evaluation of novel pteridin-7(8H)-one derivatives as potent CDK2 inhibitors” (Bioorg Med Chem Lett, 2023).

pIC50: −log10 of the molar value.

Sequence of CDK6/cyclin D3 (P30281 whole entry): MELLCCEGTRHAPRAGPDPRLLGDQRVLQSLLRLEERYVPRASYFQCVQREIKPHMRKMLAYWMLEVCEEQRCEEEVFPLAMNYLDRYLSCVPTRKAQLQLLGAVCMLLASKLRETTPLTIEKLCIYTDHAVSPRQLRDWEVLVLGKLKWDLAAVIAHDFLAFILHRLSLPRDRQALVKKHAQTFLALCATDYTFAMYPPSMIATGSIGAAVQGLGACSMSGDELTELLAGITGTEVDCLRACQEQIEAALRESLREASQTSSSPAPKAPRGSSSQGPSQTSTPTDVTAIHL
Sequence of CDK6/cyclin D3 (Q00534 whole entry): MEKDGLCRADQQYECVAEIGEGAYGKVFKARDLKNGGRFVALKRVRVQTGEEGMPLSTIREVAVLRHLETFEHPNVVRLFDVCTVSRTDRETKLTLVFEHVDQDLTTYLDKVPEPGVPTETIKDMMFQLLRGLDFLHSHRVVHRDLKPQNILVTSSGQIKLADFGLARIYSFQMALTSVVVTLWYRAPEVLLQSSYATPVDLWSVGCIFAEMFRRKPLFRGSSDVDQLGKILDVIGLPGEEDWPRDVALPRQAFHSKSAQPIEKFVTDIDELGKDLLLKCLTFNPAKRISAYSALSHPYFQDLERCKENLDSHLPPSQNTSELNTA
Sequence of Cyclin-dependent kinase 4/cyclin D1 (P11802 whole entry): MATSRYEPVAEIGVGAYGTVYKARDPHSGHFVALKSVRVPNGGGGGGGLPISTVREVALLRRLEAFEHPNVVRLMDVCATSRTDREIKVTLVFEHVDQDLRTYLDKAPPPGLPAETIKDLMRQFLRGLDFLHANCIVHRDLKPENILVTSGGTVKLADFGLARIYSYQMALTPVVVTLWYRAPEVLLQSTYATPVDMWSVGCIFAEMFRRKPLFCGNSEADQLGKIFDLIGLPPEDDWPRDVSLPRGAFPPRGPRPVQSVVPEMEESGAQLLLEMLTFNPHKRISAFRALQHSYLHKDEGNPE
Sequence of Cyclin-dependent kinase 4/cyclin D1 (P24385 whole entry, further chain): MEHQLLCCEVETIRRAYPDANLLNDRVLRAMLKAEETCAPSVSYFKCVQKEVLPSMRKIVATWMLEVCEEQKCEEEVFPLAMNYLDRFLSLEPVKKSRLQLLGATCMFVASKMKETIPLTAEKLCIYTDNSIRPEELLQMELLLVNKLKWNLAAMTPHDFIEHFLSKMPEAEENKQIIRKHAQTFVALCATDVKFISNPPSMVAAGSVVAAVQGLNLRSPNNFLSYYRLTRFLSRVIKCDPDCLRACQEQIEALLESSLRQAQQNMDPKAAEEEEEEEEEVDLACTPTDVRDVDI

A word on the inhibition: it is the change of the read-out against control, counted positive when it falls. A higher inhibition goes with a strong effect. In turn, `CS(=O)(=O)c1ccc(Nc2ncc3nc(O)c(=O)n(C4CCCC4)c3n2)cc1` gave an inhibition in assay [1] of 30%.
As a reminder, the pIC50 is the IC50 on a negative log10 scale, so that one unit is a factor of ten. In assay [1], `CS(=O)(=O)c1ccc(Nc2ncc3nc(NN)c(=O)n(C4CCCC4)c3n2)cc1` came in with an inhibition of 67.3%. The pIC50 in assay [2] is 6.04; in the assay with HCT-116, 5.46; in the assay on MV4-11 it was 5.93.
Take `CN(C)S(=O)(=O)N1CCC(Nc2ncc3nc(O)c(=O)n(C4CCCC4)c3n2)CC1`: the inhibition in assay [1] came to 15.8%.
For the molecule `CNc1nc2cnc(NC3CCN(S(C)(=O)=O)CC3)nc2n(C2CCCC2)c1=O`, the inhibition in assay [1] came out at 46.2%.
Still for that read-out and setting: with `CS(=O)(=O)N1CCC(Nc2ncc3c(n2)n(C2CCCC2)c(=O)c2nncn23)CC1` the figure was 14.2%.
`CS(=O)(=O)N1CCC(Nc2ncc3nc(NN)c(=O)n(C4CCCC4)c3n2)CC1` gave an inhibition in assay [1] of 85.6%. For the same molecule, the pIC50 in assay [2] was 6.89; in the assay on HCT-116, 5.79; in the assay on MV4-11, 5.71; in assay [3] it was 6.47; against CDK6/cyclin D3, 6.34. In addition, the Ratio IC50 in the assay filed under Homo sapiens [4] amounted to 3; in the assay filed under Homo sapiens [5] it was 4.
As for `CN1CCN(c2ccc(Nc3ncc4nc(O)c(=O)n(C5CCCC5)c4n3)cc2)CC1`, in assay [1], the inhibition was 48.3%. For the same molecule, the pIC50 in assay [2] is 5.80; in the assay with HCT-116 it was 5.21; in the assay on MV4-11, 5.31.
Consider `CN(C)S(=O)(=O)N1CCC(Nc2nc3cnc(NCC(F)F)nc3n(C3CCCC3)c2=O)CC1`, for which the inhibition in assay [1] stood at 38.2%.
Same read-out and setting: next, `CN(C)S(=O)(=O)N1CCC(Nc2nc3cnc(NN)nc3n(C3CCCC3)c2=O)CC1`: 27.1%; `CCS(=O)(=O)N1CCC(Nc2ncc3nc(NC)c(=O)n(C4CCCC4)c3n2)CC1`: 45.4%.
On to `CCS(=O)(=O)N1CCC(Nc2ncc3nc(O)c(=O)n(C4CCCC4)c3n2)CC1`, for which the inhibition in assay [1] was 65.4%. Further, the pIC50 is 5.98 in assay [2], 5.03 in the assay with HCT-116 and 5.04 in the assay with MV4-11.
Molecule `CCC(CC)n1c(=O)c(O)nc2cnc(NC3CCN(S(C)(=O)=O)CC3)nc21` registered an inhibition in assay [1] of 39.2%.
With `CS(=O)(=O)N1CCC(Nc2ncc3nc(O)c(=O)n([C@@H]4CCC[C@H]4O)c3n2)CC1`, the inhibition in assay [1] turned out to be 43%.
The same measure, in the same setting: with `CS(=O)(=O)N1CCC(Nc2nc3cnc(NCC(F)F)nc3n(C3CCCC3)c2=O)CC1` the figure was 35.1%.
Consider `C[C@@]1(O)CCC[C@H]1n1c(=O)c(C(F)F)cc2cnc(NC3CCN(S(C)(=O)=O)CC3)nc21` [EBVACICLIB], for which, in assay [1], the inhibition turned out to be 98.8%. Besides, the results for the pIC50 in the assay with HCT-116 and in the assay on MV4-11 were 6.66 and 6.24, respectively.
In the case of `COc1nc2cnc(NC3CCN(S(=O)(=O)N(C)C)CC3)nc2n(C2CCCC2)c1=O`, the inhibition in assay [1] came to 36.1%.
Still for that read-out and setting: with `CS(=O)(=O)N1CCC(Nc2ncc3nc(O)c(=O)n(C4CCOCC4)c3n2)CC1` the figure was 9.3%; with `O=c1c(O)nc2cnc(NC3CCN(S(=O)(=O)C4CC4)CC3)nc2n1C1CCCC1`, 20.1%.
Consider `CCC(CC)n1c(=O)c(OC)nc2cnc(NC3CCN(S(C)(=O)=O)CC3)nc21`, for which the inhibition in assay [1] amounted to 79.6%. The pIC50 in assay [2] is 6.46; with HCT-116 it was 5.26; with MV4-11, 5.31.
`CCC(C)n1c(=O)c(OC)nc2cnc(NC3CCN(S(C)(=O)=O)CC3)nc21` (stereo not given): the inhibition in assay [1] was found to be 70.2%. Moreover, the figures for the pIC50 (in assay [2]; in the assay with HCT-116; in the assay on MV4-11) were 6.30, 5.20 and 5.11, respectively.
Regarding `CS(=O)(=O)c1ccc(Nc2ncc3c(n2)n(C2CCCC2)c(=O)c2nncn23)cc1`, the inhibition in assay [1] is 1.7%.
Consider `CS(=O)(=O)N1CCC(Nc2ncc3nc(O)c(=O)n(C4CCCC4)c3n2)CC1`, for which the inhibition in assay [1] was found to be 62.2%. In addition, the pIC50 in assay [2] is 5.91; with HCT-116, 4.98; in the assay with MV4-11, 4.86.
The like results for `COc1nc2cnc(NC3CCN(S(C)(=O)=O)CC3)nc2n(C2CCOCC2)c1=O` were, in that order, 45.8%, 5.77, 5.30 and 5.37.
Regarding `CS(=O)(=O)N1CCC(Nc2ncc3nc(O)c(=O)n(C4CCNC4)c3n2)CC1` (stereo not given), the inhibition in assay [1] was 4.1%.
The same measure, in the same setting: with `CS(=O)(=O)N1CCC(Nc2nc3cnc(NN)nc3n(C3CCCC3)c2=O)CC1` the figure was 26.8%.
Molecule `COc1nc2cnc(NC3CCN(S(C)(=O)=O)CC3)nc2n(C2CCCC2)c1=O` came in with an inhibition in assay [1] of 82.4%. The pIC50 was 6.80 in assay [2], 5.71 in the assay with HCT-116 and 5.59 in the assay with MV4-11.
`CNc1nc2cnc(NC3CCN(S(=O)(=O)C4CC4)CC3)nc2n(C2CCCC2)c1=O` registered an inhibition in assay [1] of 9.2%.
On the same count and under the same terms, next, `CCNc1ncc2nc(NC3CCN(S(C)(=O)=O)CC3)c(=O)n(C3CCCC3)c2n1`: 34.4%.
The molecule `CCNc1ncc2nc(NC3CCN(S(=O)(=O)N(C)C)CC3)c(=O)n(C3CCCC3)c2n1` returned an inhibition in assay [1] of 43.2%.
Still for that read-out and setting: with `CS(=O)(=O)N1CCC(Nc2ncc3nc(NCC(F)F)c(=O)n(C4CCCC4)c3n2)CC1` the figure was 51.2%.
Still for that read-out and setting: with `CCC(C)n1c(=O)c(O)nc2cnc(NC3CCN(S(C)(=O)=O)CC3)nc21` (stereo not given) the figure was 23.4%.
The molecule `CCNc1nc2cnc(NC3CCN(S(C)(=O)=O)CC3)nc2n(C2CCCC2)c1=O` showed an inhibition in assay [1] of 20.3%.
